In ChEMBL document CHEMBL1151583, “Conformationally-restricted analogs of TXA2 antagonist SQ 33,961: Receptor binding conformation of the carboxyl sidechain” (Bioorg Med Chem Lett, 1991):

Species on record: Homo sapiens
Assay: In vitro ability to inhibit arachidonic acid induced platelet aggregation (AAIPA)
Format: functional
Settings: read-out: I50

| SMILES | IC50 [µM] |
| --- | --- |
| O=C(O)CCc1ccccc1/C=C1\C2CCC(O2)C1c1nc(C(=O)NCCCCC2CCCCC2)co1 (configuration not stated) | 0.008 |
| O=C(O)CCc1ccccc1/C=C1/C2CCC(O2)C1c1nc(C(=O)NCCCCC2CCCCC2)co1 (configuration not stated) | 12.7 |
